Test results from patent US20020137929A1, “1 - (3-heterocyclylphenyl) isothiourea, -isourea, -guanidine and -amidine herbicidal agents” (Intellectual Property Department, BASF Aktiengesellschaft, priority 1998, published 2002).

Experiments:
[1] = system: AMBEL (Ragweed, Common); experiment: Postemergence herbicidal evaluation; format: in vivo, Ambrosia artemisifolia; conditions: postemergence
How it was run: (§1)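 Seedlings grown about two weeks were sprayed at 40 psi with compound dispersed in 50/50 acetone/water plus 0.5% TWEEN 20, at about 0.0156 to 0.500 kg/ha. Plants were kept in the greenhouse and scored 4–5 weeks later on a 0–9 visual scale against untreated controls.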

[2] = system: CASOB (Sicklepod); experiment: Postemergence herbicidal evaluation; format: in vivo, Cassia obtusifolia; conditions: postemergence
How it was run: as §1

[3] = system: CHEAL (Lambsquarters, Common); experiment: Postemergence herbicidal evaluation; format: in vivo, Chenopodium album; conditions: postemergence
How it was run: as §1

[4] = system: IPOHE (Morningglory, Ivyleaf); experiment: Postemergence herbicidal evaluation; format: in vivo, Ipomoea hederacea; conditions: postemergence
How it was run: as §1

[5] = system: ECHCG (Barnyardgrass); experiment: Postemergence herbicidal evaluation; format: in vivo, Echinochloa crus-galli; conditions: postemergence
How it was run: as §1

[6] = system: GLXMAW (Soybean, Williams); experiment: Postemergence herbicidal evaluation; format: in vivo, Glycine max, (L.) Merr. cv Williams; conditions: postemergence
How it was run: as §1

[7] = system: TRZAWR (Wheat, Winter, cv Riband); experiment: Postemergence herbicidal evaluation; format: in vivo, Triticum aestivum; conditions: postemergence
How it was run: as §1

[8] = system: ABUTH (Velvetleaf); experiment: Preemergence herbicidal evaluation; format: in vivo, Abutilon theophrasti; conditions: preemergence, rated 4-5 weeks after treatment, 0-9 scale
How it was run: (§2)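 Scores use a 0–9 visual scale covering stand, vigor, malformation, size and chlorosis relative to controls, rated four to five weeks after treatment. Before emergence, soil-planted seeds were sprayed with compound in aqueous acetone at roughly 0.0156–0.500 kg/ha and held in the greenhouse.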

[9] = system: AMBEL (Ragweed, Common); experiment: Preemergence herbicidal evaluation; format: in vivo, Ambrosia artemisifolia; conditions: preemergence, rated 4-5 weeks after treatment, 0-9 scale
How it was run: as §2

[10] = system: CASOB (Sicklepod); experiment: Preemergence herbicidal evaluation; format: in vivo, Cassia obtusifolia; conditions: preemergence, rated 4-5 weeks after treatment, 0-9 scale
How it was run: as §2

[11] = system: CHEAL (Lambsquarters, Common); experiment: Preemergence herbicidal evaluation; format: in vivo, Chenopodium album; conditions: preemergence, rated 4-5 weeks after treatment, 0-9 scale
How it was run: as §2

[12] = system: IPOHE (Morningglory, Ivyleaf); experiment: Preemergence herbicidal evaluation; format: in vivo, Ipomoea hederacea; conditions: preemergence, rated 4-5 weeks after treatment, 0-9 scale
How it was run: as §2

[13] = system: GLXMAW (Soybean, Williams); experiment: Preemergence herbicidal evaluation; format: in vivo, Glycine max, (L.) Merr. cv Williams; conditions: preemergence, rated 4-5 weeks after treatment, 0-9 scale
How it was run: as §2

[14] = system: ORYSAT (Rice, Tebonnet); experiment: Preemergence herbicidal evaluation; format: in vivo, Oryza sativa, (L.) Tebonnet; conditions: preemergence, rated 4-5 weeks after treatment, 0-9 scale
How it was run: as §2

[15] = system: MOOVA (Monochoria); experiment: Preemergence weed control under flooded paddy conditions; format: in vivo, Monochoria vaginalis; conditions: rated 3-4 weeks after treatment
How it was run: (§3)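 Seeds or propagules sown in silt loam kept flooded 1.5-3 cm; compounds in 50/50 acetone/water pipetted into flood water at about 0.0313 to 0.500 kg/ha. Greenhouse; visual 0-9 rating versus untreated control 3-4 weeks after treatment.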

[16] = system: SAGPY (Arrowhead (Pygmaea)); experiment: as above; format: in vivo, Sagittaria pygmaea; conditions: rated 3-4 weeks after treatment
How it was run: as §3

C=CCN1C(=O)C(CC(=O)NOC)SC1=Nc1cc(-n2c(=O)cc(C(F)(F)F)n(C)c2=O)c(F)cc1Cl (stereo not drawn) [Compound 85]
AMBEL herbicidal rating ([1]; rate 0.0156 kg/ha): 9.0 | AMBEL herbicidal rating ([1]; rate 0.0313 kg/ha): 9.0 | AMBEL herbicidal rating ([1]; rate 0.0625 kg/ha): 9.0 | AMBEL herbicidal rating ([1]; rate 0.1250 kg/ha): 9.0 | CASOB herbicidal rating ([2]; rate 0.0156 kg/ha): 0.0 | CASOB herbicidal rating ([2]; rate 0.0313 kg/ha): 0.0 | CASOB herbicidal rating ([2]; rate 0.0625 kg/ha): 0.0 | CASOB herbicidal rating ([2]; rate 0.1250 kg/ha): 2.0 | CHEAL herbicidal rating ([3]; rate 0.0156 kg/ha): 2.0 | CHEAL herbicidal rating ([3]; rate 0.0313 kg/ha): 4.0 | CHEAL herbicidal rating ([3]; rate 0.0625 kg/ha): 4.0 | CHEAL herbicidal rating ([3]; rate 0.1250 kg/ha): 9.0 | IPOHE herbicidal rating ([4]; rate 0.0156 kg/ha): 9.0 | IPOHE herbicidal rating ([4]; rate 0.0313 kg/ha): 9.0 | IPOHE herbicidal rating ([4]; rate 0.0625 kg/ha): 9.0 | IPOHE herbicidal rating ([4]; rate 0.1250 kg/ha): 9.0 | ECHCG herbicidal rating ([5]; rate 0.0156 kg/ha): 0.0 | ECHCG herbicidal rating ([5]; rate 0.0313 kg/ha): 0.0 | ECHCG herbicidal rating ([5]; rate 0.0625 kg/ha): 0.0 | ECHCG herbicidal rating ([5]; rate 0.1250 kg/ha): 9.0 | GLXMAW herbicidal rating ([6]; rate 0.0156 kg/ha): 4.5 | GLXMAW herbicidal rating ([6]; rate 0.0313 kg/ha): 6.0 | GLXMAW herbicidal rating ([6]; rate 0.0625 kg/ha): 6.0 | GLXMAW herbicidal rating ([6]; rate 0.1250 kg/ha): 7.5 | TRZAWR herbicidal rating ([7]; rate 0.0156 kg/ha): 3.0 | TRZAWR herbicidal rating ([7]; rate 0.0313 kg/ha): 3.5 | TRZAWR herbicidal rating ([7]; rate 0.0625 kg/ha): 4.5 | TRZAWR herbicidal rating ([7]; rate 0.1250 kg/ha): 5.0 | ABUTH rating ([8]; 0.0156 kg/ha): 0.0 | ABUTH rating ([8]; 0.0313 kg/ha): 9.0 | ABUTH rating ([8]; 0.0625 kg/ha): 9.0 | ABUTH rating ([8]; 0.1250 kg/ha): 9.0 | ABUTH rating ([8]; 0.2500 kg/ha): 9.0 | ABUTH rating ([8]; 0.5000 kg/ha): 9.0 | AMBEL rating ([9]; 0.0156 kg/ha): 0.0 | AMBEL rating ([9]; 0.0313 kg/ha): 0.0 | AMBEL rating ([9]; 0.0625 kg/ha): 3.0 | AMBEL rating ([9]; 0.1250 kg/ha): 7.0 | AMBEL rating ([9]; 0.2500 kg/ha): 9.0 | AMBEL rating ([9]; 0.5000 kg/ha): 9.0 | CASOB rating ([10]; 0.0156 kg/ha): 0.0 | CASOB rating ([10]; 0.0313 kg/ha): 0.0 | CASOB rating ([10]; 0.0625 kg/ha): 0.0 | CASOB rating ([10]; 0.1250 kg/ha): 0.0 | CASOB rating ([10]; 0.2500 kg/ha): 0.0 | CASOB rating ([10]; 0.5000 kg/ha): 9.0 | CHEAL rating ([11]; 0.0156 kg/ha): 3.0 | CHEAL rating ([11]; 0.0313 kg/ha): 9.0 | CHEAL rating ([11]; 0.0625 kg/ha): 9.0 | CHEAL rating ([11]; 0.1250 kg/ha): 9.0 | CHEAL rating ([11]; 0.2500 kg/ha): 9.0 | CHEAL rating ([11]; 0.5000 kg/ha): 9.0 | IPOHE rating ([12]; 0.0156 kg/ha): 0.0 | IPOHE rating ([12]; 0.0313 kg/ha): 0.0 | IPOHE rating ([12]; 0.0625 kg/ha): 2.0 | IPOHE rating ([12]; 0.1250 kg/ha): 5.0 | IPOHE rating ([12]; 0.2500 kg/ha): 7.0 | IPOHE rating ([12]; 0.5000 kg/ha): 9.0 | GLXMAW rating ([13]; 0.0156 kg/ha): 0.0 | GLXMAW rating ([13]; 0.0313 kg/ha): 0.0 | GLXMAW rating ([13]; 0.0625 kg/ha): 0.0 | GLXMAW rating ([13]; 0.1250 kg/ha): 2.0 | GLXMAW rating ([13]; 0.2500 kg/ha): 2.0 | GLXMAW rating ([13]; 0.5000 kg/ha): 9.0 | ORYSAT rating ([14]; 0.0156 kg/ha): 0.0 | ORYSAT rating ([14]; 0.0313 kg/ha): 0.0 | ORYSAT rating ([14]; 0.0625 kg/ha): 0.0 | ORYSAT rating ([14]; 0.1250 kg/ha): 0.0 | ORYSAT rating ([14]; 0.2500 kg/ha): 2.0 | ORYSAT rating ([14]; 0.5000 kg/ha): 3.0 | MOOVA herbicidal effect rating ([15]; 0.0313 kg/ha): 9.0 | MOOVA herbicidal effect rating ([15]; 0.0625 kg/ha): 9.0 | MOOVA herbicidal effect rating ([15]; 0.1250 kg/ha): 9.0 | MOOVA herbicidal effect rating ([15]; 0.2500 kg/ha): 9.0 | SAGPY herbicidal effect rating ([16]; 0.0313 kg/ha): 3.0 | SAGPY herbicidal effect rating ([16]; 0.0625 kg/ha): 3.0 | SAGPY herbicidal effect rating ([16]; 0.1250 kg/ha): 9.0 | SAGPY herbicidal effect rating ([16]; 0.2500 kg/ha): 9.0
